Laboratory results as given in PubChem BioAssay (NCI).
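1) Cells in 96-well plates. 2) Compound, 48 h, 5 concentrations. 3) Linear interpolation between surrounding doses. 4) Unreached endpoint = highest concentration. GI50 = concentration required for 50% inhibition of growth. TGI marks complete inhibition of growth.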

Assays:
Assay in all cases: inhibition of tumour cell growth, NCI panel, 48 h; in the data active = GI50 below about 0.43 µM; inactive = the rest
[1] = test system: EKVX NSCLC
[2] = test system: MDA-MB-435
[3] = test system: M14 melanoma
[4] = test system: HOP-92 NSCLC
[5] = test system: IGROV1 ovarian
[6] = test system: SF-295 CNS
[7] = test system: HS 578T breast
[8] = test system: SK-MEL-2 melanoma
[9] = test system: HL-60(TB) leukemia
[10] = test system: SNB-75 CNS
[11] = test system: MALME-3M melanoma
[12] = test system: NCI-H23 lung
[13] = test system: OVCAR-5 ovarian
[14] = test system: DU-145 prostate
[15] = test system: 786-0 renal
[16] = test system: OVCAR-8 ovarian
[17] = test system: UO-31 renal
[18] = test system: NCI-H226 lung
[19] = test system: HCT-15 colon
[20] = test system: HOP-62 NSCLC
[21] = test system: NCI-H522 lung
[22] = test system: HCC-2998 colon
[23] = test system: KM12 colon
[24] = test system: UACC-257 melanoma
[25] = test system: A549 NSCLC
[26] = test system: COLO 205 colon
[27] = test system: UACC-62 melanoma
[28] = test system: SK-OV-3 ovarian
[29] = test system: NCI/ADR-RES ovarian
[30] = test system: SW-620 colon
[31] = test system: ACHN renal
[32] = test system: CCRF-CEM leukemia
[33] = test system: HT29 colon
[34] = test system: SR leukemia
[35] = test system: TK-10 renal
[36] = test system: SF-268 CNS
[37] = test system: A498 renal
[38] = test system: MOLT-4 leukemia
[39] = test system: OVCAR-3 ovarian
[40] = test system: SK-MEL-5 melanoma
[41] = test system: SN12C renal
[42] = test system: RPMI-8226 leukemia
[43] = test system: OVCAR-4 ovarian
[44] = test system: PC-3 prostate
[45] = test system: SK-MEL-28 melanoma
[46] = test system: SF-539 CNS
[47] = test system: BT-549 breast
[48] = test system: T-47D breast
[49] = test system: HCT-116 colon
[50] = test system: RXF 393 renal
[51] = test system: MDA-MB-231 breast
[52] = test system: NCI-H460 lung
[53] = test system: K-562 leukemia
[54] = test system: LOX IMVI melanoma
[55] = test system: U251 CNS
[56] = test system: CAKI-1 renal
[57] = test system: MCF7 breast
[58] = test system: SNB-19 CNS

Clc1ccc2c(NCCNc3nc(Cl)nc4ccccc34)ccnc2c1
3.51 µM: TGI [3]
3.16 µM: TGI [10]
2.68 µM: TGI [39]
3.56 µM: TGI [1]
0.531 µM: TGI [49]
3.46 µM: TGI [35]
3.47 µM: TGI [11]
3.26 µM: TGI [6]
3.09 µM: TGI [13]
2.94 µM: TGI [17]
1.22 µM: TGI [43]
3.22 µM: TGI [40]
1.25 µM: TGI [38]
3.54 µM: TGI [24]
3.34 µM: TGI [16] | TGI [48]
active: GI50 [9] 0.231 µM | GI50 [30] 0.271 µM | GI50 [32] 0.331 µM | GI50 [33] 0.193 µM | GI50 [34] 0.268 µM | GI50 [38] 0.332 µM | GI50 [42] 0.279 µM | GI50 [43] 0.323 µM | GI50 [49] 0.218 µM | GI50 [51] 0.36 µM | GI50 [53] 0.255 µM
3.18 µM: TGI [22]
3.12 µM: TGI [44] | TGI [46]
3.52 µM: TGI [8] | TGI [37]
3.49 µM: TGI [27]
2.46 µM: TGI [15]
1.83 µM: TGI [52]
2.7 µM: TGI [5]
3.04 µM: TGI [25]
0.769 µM: TGI [42]
7.24 µM: TGI [29]
3.84 µM: TGI [36]
3.37 µM: TGI [50]
2.32 µM: TGI [26]
3.7 µM: TGI [12]
2.59 µM: TGI [14]
inactive: GI50 [1] 1.79 µM | GI50 [2] 1.47 µM | GI50 [3] 1.84 µM | GI50 [4] 1.74 µM | GI50 [5] 1.13 µM | GI50 [6] 1.75 µM | GI50 [7] 2.26 µM | GI50 [8] 1.87 µM | GI50 [10] 1.64 µM | GI50 [11] 1.76 µM | GI50 [12] 1.83 µM | GI50 [13] 1.62 µM | GI50 [14] 1.26 µM | GI50 [15] 1.08 µM | GI50 [16] 1.49 µM | GI50 [17] 1.5 µM | GI50 [18] 1.82 µM | GI50 [19] 1.14 µM | GI50 [20] 0.56 µM | GI50 [21] 1.3 µM | GI50 [22] 1.62 µM | GI50 [23] 1.61 µM | GI50 [24] 1.89 µM | GI50 [25] 1.4 µM | GI50 [26] 0.863 µM | GI50 [27] 1.81 µM | GI50 [28] 1.82 µM | GI50 [29] 2.5 µM | GI50 [31] 1.61 µM | GI50 [35] 1.95 µM | GI50 [36] 1.89 µM | GI50 [37] 1.87 µM | GI50 [39] 1.29 µM | GI50 [40] 1.76 µM | GI50 [41] 1.48 µM | GI50 [44] 1.6 µM | GI50 [45] 1.78 µM | GI50 [46] 1.6 µM | GI50 [47] 1.81 µM | GI50 [48] 1.39 µM | GI50 [50] 1.73 µM | GI50 [52] 0.536 µM
0.656 µM: TGI [9]
2.09 µM: TGI [20]
3.17 µM: TGI [23]
2.55 µM: TGI [19]
2.95 µM: TGI [2]
3 µM: TGI [31]
0.636 µM: TGI [30]
0.614 µM: TGI [53]
3.53 µM: TGI [18]
4.96 µM: TGI [7]
1.04 µM: TGI [32]
3.2 µM: TGI [41]
3.35 µM: TGI [28]
3.72 µM: TGI [47]
2.76 µM: TGI [21]
1.21 µM: TGI [51]
0.866 µM: TGI [34]
0.377 µM: TGI [33]
3.4 µM: TGI [4] | TGI [45]

Cc1cccc(Cc2cnc(NC(=O)/C=C/c3ccco3)s2)c1
> 23.1 µM: TGI [18]
0.0837 µM: TGI [9]
> 73.1 µM: TGI [51]
3.36 µM: TGI [40]
3.93 µM: TGI [37]
active: GI50 [1] 0.0581 µM | GI50 [3] 0.031 µM | GI50 [54] 0.0683 µM | GI50 [5] 0.0712 µM | GI50 [6] 0.0437 µM | GI50 [7] 0.0313 µM | GI50 [8] 0.0737 µM | GI50 [55] 0.0396 µM | GI50 [9] 0.0281 µM | GI50 [11] 0.0484 µM | GI50 [56] 0.0459 µM | GI50 [12] 0.108 µM | GI50 [13] 0.208 µM | GI50 [14] 0.0382 µM | GI50 [15] 0.0598 µM | GI50 [16] 0.0535 µM | GI50 [17] 0.0847 µM | GI50 [19] 0.0427 µM | GI50 [20] 0.0535 µM | GI50 [22] 0.135 µM | GI50 [23] 0.039 µM | GI50 [25] 0.0591 µM | GI50 [26] 0.0438 µM | GI50 [27] 0.0542 µM | GI50 [28] 0.0465 µM | GI50 [29] 0.0364 µM | GI50 [30] 0.0385 µM | GI50 [31] 0.0645 µM | GI50 [32] 0.0433 µM | GI50 [33] 0.0373 µM | GI50 [34] 0.0342 µM | GI50 [36] 0.181 µM | GI50 [37] 0.199 µM | GI50 [38] 0.0561 µM | GI50 [39] 0.0312 µM | GI50 [40] 0.0354 µM | GI50 [41] 0.073 µM | GI50 [42] 0.0403 µM | GI50 [57] 0.0331 µM | GI50 [44] 0.04 µM | GI50 [58] 0.0488 µM | GI50 [46] 0.026 µM | GI50 [47] 0.174 µM | GI50 [48] 0.033 µM | GI50 [49] 0.0425 µM | GI50 [50] 0.0221 µM | GI50 [51] 0.0771 µM | GI50 [52] 0.0359 µM | GI50 [53] 0.0347 µM
inactive: GI50 [4] 8.5 µM | GI50 [18] 0.797 µM | GI50 [24] > 100 µM | GI50 [35] > 100 µM | GI50 [43] 1.59 µM | GI50 [45] > 100 µM
0.0752 µM: TGI [46]
1.23 µM: TGI [26]
> 100 µM: TGI [1] | TGI [3] | TGI [54] | TGI [4] | TGI [5] | TGI [6] | TGI [7] | TGI [8] | TGI [55] | TGI [11] | TGI [56] | TGI [12] | TGI [13] | TGI [14] | TGI [15] | TGI [16] | TGI [17] | TGI [19] | TGI [20] | TGI [22] | TGI [23] | TGI [24] | TGI [25] | TGI [27] | TGI [28] | TGI [29] | TGI [30] | TGI [31] | TGI [32] | TGI [33] | TGI [34] | TGI [35] | TGI [36] | TGI [38] | TGI [41] | TGI [42] | TGI [57] | TGI [43] | TGI [44] | TGI [58] | TGI [45] | TGI [47] | TGI [48] | TGI [49] | TGI [52] | TGI [53]
0.0643 µM: TGI [50]
0.0914 µM: TGI [39]
